Results as given in patent US6503873B1, “Ultra mild detergent compositions” (Hampshire Chemical Corp, priority 1996, dated 2003).

Tests used:
[1] = Lather stability (lather drainage time, method of Hart and DeGeorge); assay type: physicochemical; conditions: for enhancement of lather stability of the product by addition as one-third of the product: 3:1 blend; for change in lather stability (lather drainage time) on addition of water hardness: approximately 3,000 ppm water hardness (CaCO3), FIG. 2
Description: The lather stability of a surfactant solution, expressed as lather drainage time, can be determined by the method of Hart and DeGeorge, J. Soc. Cosmet. Chem., 31, 223-226 (1980). In this method, a 200 ml portion of the test solution is agitated in a blender for one minute. The lather produced is immediately poured into a Nalgene PF150 funnel, which has been modified for easy detection of endpoint by incorporation of a fine strand of Nicrome wire across the funnel, where the diameter is 9 cm. The funnel is supported by a 20-mesh sieve. The time elapsed between pouring of the blender contents into the funnel and reappearance of the wire through the subsiding foam, determined using a stopwatch, is reported as the lather drainage time in seconds.

human skin cels = test: In vitro skin irritation testing (MTT assay); assay type: cell-based; conditions: tissue immersed for 24 hours; about 16% solutions
Description: Samples of 1) the aforementioned commercial baby shampoo, 2) Na2LED3A, 3) a 3:1 ratio blend of baby shampoo and Na2LED3A, and 4) a 16% solution of sodium laureth 3 sulfate (a surfactant commonly used in ordinary shampoo) were subjected to in vitro skin irritation testing. A sample of the tissue is immersed for 24 hours in a solution of the substance to be evaluated and later assayed for viable mitochondria by an MTT assay. The MTT assay is a colorimetric method for determining cell viability based on the reduction of a tetrazolium salt (MTT) into a colored formazan dye by mitochondrial enzymes of the electron transport chain. The extent to which the number of viable mitochondria has been reduced, compared to a control, is taken as a measure of the toxicity of the test substance to human skin cels. The in vitro scoring classification used was as follows: […]

[2] = product Johnsons Baby 2 in 1 shampoo, hard water (200 ppm CaCO3)
[3] = product Johnsons Baby 2 in 1 shampoo, soft water
[4] = product Johnsons Baby Bath, hard water (200 ppm CaCO3)
[5] = product Johnsons Baby Bath, soft water
[6] = product Johnsons Baby Shampoo, hard water (200 ppm CaCO3)
[7] = product Johnsons Baby Shampoo, soft water
[8] = product Suave Baby Care, hard water (200 ppm CaCO3)
[9] = product Suave Baby Care, soft water
[10] = sodium chloride, 1% solution, pH 7, FIG. 1

Row | enhancement of lather stability of the product by addition as one-third of the product [1, 2] | enhancement of lather stability of the product by addition as one-third of the product [1, 3] | enhancement of lather stability of the product by addition as one-third of the product ([1]; product Johnsons Baby Shampoo, even harder water (400 ppm CaCO3)) | lather effectiveness relative to the baby shampoo alone ([1]; pure substance, hard water, versus Johnsons Baby 2 in 1 shampoo, FIG. 11) | Compound | enhancement of lather stability of the product by addition as one-third of the product [1, 4] | enhancement of lather stability of the product by addition as one-third of the product [1, 5] | enhancement of lather stability of the product by addition as one-third of the product [1, 6] | enhancement of lather stability of the product by addition as one-third of the product [1, 7] | enhancement of lather stability of the product by addition as one-third of the product [1, 8] | enhancement of lather stability of the product by addition as one-third of the product [1, 9] | change in lather stability (lather drainage time) on addition of water hardness ([1]; 1% solution) | lather drainage time depressed by, upon addition of 4% electrolyte [1, 10] [s] | Classification (in vitro skin irritation) (human skin cels) | In vitro Score MTT-50 (human skin cels) | lather drainage time ([1]; in the presence of 200 ppm hardness, FIG. 10) | lather drainage time increased by, upon addition of 4% electrolyte [1, 10]
1 | approximately 7 fold | more than 2 fold | more than 24 fold |  | CCCCCCCCCCCC(=O)N(CCN(CC(=O)[O-])CC(=O)[O-])CC(=O)O.[K+].[K+] [K2LED3A, potassium lauroyl-ED3A] | approximately 12 fold | approximately 5 fold | more than 14 fold | approximately 8 fold | 5 fold | approximately 2 fold |  |  |  |  |  | 
2 | 9 fold | more than 9 fold |  | more than 100 times | CCCCCCCCCCCCCC(=O)N(CCN(CC(=O)[O-])CC(=O)[O-])CC(=O)O.[Na+].[Na+] [Na2MED3A, sodium myristoyl ED3A] |  |  |  |  |  |  |  |  |  |  |  | 
3 |  |  |  |  | CCCCCCCCCCCCOS(=O)(=O)[O-].[Na+] [sodium lauryl sulfate, reference compound] |  |  |  |  |  |  | five-fold reduction | 30 |  |  |  | 
4 |  |  |  |  | sodium laureth 3 sulfate [Na Laureth(3) sulfate, reference compound] |  |  |  |  |  |  |  |  | Moderate (201-1,000) | 522 micro g/ml |  | 

Row | Compound | enhancement of lather stability of the product by addition as one-third of the product [1, 2] | enhancement of lather stability of the product by addition as one-third of the product [1, 3] | enhancement of lather stability of the product by addition as one-third of the product ([1]; product Johnsons Baby Shampoo, even harder water (400 ppm CaCO3)) | lather effectiveness relative to the baby shampoo alone ([1]; pure substance, hard water, versus Johnsons Baby 2 in 1 shampoo, FIG. 11) | enhancement of lather stability of the product by addition as one-third of the product [1, 4] | enhancement of lather stability of the product by addition as one-third of the product [1, 5] | enhancement of lather stability of the product by addition as one-third of the product [1, 6] | enhancement of lather stability of the product by addition as one-third of the product [1, 7] | enhancement of lather stability of the product by addition as one-third of the product [1, 8] | enhancement of lather stability of the product by addition as one-third of the product [1, 9] | change in lather stability (lather drainage time) on addition of water hardness ([1]; 1% solution) | lather drainage time depressed by, upon addition of 4% electrolyte [1, 10] [s] | Classification (in vitro skin irritation) (human skin cels) | In vitro Score MTT-50 (human skin cels) | lather drainage time ([1]; in the presence of 200 ppm hardness, FIG. 10) | lather drainage time increased by, upon addition of 4% electrolyte [1, 10]
5 | sodium lauroyl ED3A [Na2LED3A] | 5 fold | approximately 6 fold |  |  | more than 12 fold | more than 4 fold | approximately 7 fold | approximately 7 fold | more than 5 fold | more than doubled | five-fold increase |  | Non-irritant (>10,000) | >10,000 micro g/ml | over 200 seconds | more than 70 seconds
